In patent publication US20260364027A1, “ENHANCER OF CARDIOLIPIN MOLECULAR SPECIES AS MITOCHONDRIAL COMPONENT” (WATANABE OYSTER LABORATORY, CO., LTD., priority 2022, published 2026):

How the values were obtained:
[1] = test system: human renal proximal tubule cells (HK-2); assay: Cardiolipin measurement by LC-MS/MS in HK-2 cells under oxidative stress stimulation (molecular species, total content, acyl groups); format: cell-based; conditions: oxidative stress (100 μM BSO) + DHMBA 250 or 500 μM
Method: FIG. 2 is an explanatory drawing for describing increase effects of DHMBA on CL molecular species under oxidative stress conditions. HK-2 cells were cultured with 100 μM BSO and 250 or 500 μM DHMBA, and then recovered and CL was measured using LC-MS/MS. Mean±SD (n=4).
FIG. 3 is an explanatory drawing for describing increase effects of DHMBA on total CL content under oxidative stress conditions. HK-2 cells were cultured with 100 μM BSO and 250 or 500 μM DHMBA, and then recovered and CL was measured using LC-MS/MS. Mean±SD (n=4).
FIG. 4 is an explanatory drawing for describing CL acyl group modification due to addition of DHMBA under oxidative stress conditions. HK-2 cells were cultured with 100 μM BSO and 250 or 500 μM DHMBA, and then recovered and CL was measured using LC-MS/MS. Mean±SD (n=4).
Human renal proximal tubule cells (HK-2) were subcultured in Dulbecco's Modified Eagle's Medium (DMEM, Nacalai Tesque) containing 10% fetal bovine serum and 1% penicillin-streptomycin at 37 °C in a 5% CO2 incubator. The following experiments were conducted using the oxidative stress inducer to confirm the cardiolipin increase effect of DHMBA on the oxidative stress.
HK-2 cells were seeded in a 6-well plate at a density of 1.0×10^5 cells/well and cultured for 24 hours. The cells were then divided into four groups with different stimulus conditions, and 2 mL thereof was added to each well.
The above-described four groups with the different stimulus conditions are as follows.
Control group (culture medium); oxidative stress group (final concentration 100 μM Oxidative Stress); oxidative stress+DHMBA 250 group (final concentration 100 μM Oxidative Stress+final concentration 250 μM DHMBA); and oxidative stress+DHMBA 500 group (final concentration 100 μM Oxidative Stress+final concentration 500 μM DHMBA).
After 24 hours, the cells were washed twice with phosphate-buffered saline (hereinafter referred to as PBS), and then 1 mL of PBS was added to each well and the cells were recovered using a scraper. In this cell suspension, 100 μL was used for protein quantification by a bicinchoninic acid (BCA) method. The protein concentration was used for correction of the cardiolipin concentration. The remaining cell suspension was centrifuged at 1,200 rpm for 5 minutes, the supernatant was removed, and then the precipitated cells were stored at −80 °C.
For the cardiolipin measurement, the total intracellular lipids were extracted in the same way as in the previous reports (Chen Z, et al. Metabolomics, 16: 115, 2020). […]
(§1) The data obtained were expressed as mean±standard deviation (SD), and statistical analysis was performed using JMP Pro 16 (SAS Institute Inc.). […]

CDS2 = assay: qPCR expression of CL biosynthesis-related gene CDS2 in HK-2 cells under oxidative stress; format: cell-based, human; conditions: oxidative stress (100 μM BSO) + DHMBA 250 or 500 μM, 24 h, HK-2, β-actin corrected, control = 1
Method: FIG. 5 is an explanatory drawing for describing changes in expression level of CL biosynthesis-related genes of DHMBA under oxidative stress conditions. HK-2 cells were cultured with 100 μM BSO and 250 or 500 μM DHMBA, and then the expression levels of CL biosynthesis-related genes were measured by qPCR. Mean±SD (n=4).
(§2) Therefore, in the present invention, the analysis of the expression levels of genes related to cardiolipin biosynthesis, remodeling, and degradation in response to oxidative stress stimulation was verified.
(§3) HK-2 cells were seeded in a 6-well plate at a density of 5.0×10^4 cells/well and cultured for 24 hours.
(§4) Next, under the same stimulus conditions as described above, 2 mL thereof was added to each well. […] The concentration of the purified RNA was quantified by Nanodrop (Invitrogen). […]
(§5) The gene expression levels were measured according to a protocol for THUNDERBIRD (registered trademark) SYBR (registered trademark) qPCR Mix (TOYOBO). Measurements were performed using a CFX Connect™ real-time PCR analysis system (BioRad), and analyzed using a 2^−(ΔΔCT) method.
(§6) The gene expression level of the control group was set at 1 for comparison. The figures are expressed as mean±SD (n=4 for each group). […]
as §1

PNPLA8 = assay: qPCR expression of CL remodeling/degradation-related gene PNPLA8 in HK-2 cells under oxidative stress; format: cell-based, human; conditions: oxidative stress (100 μM BSO) + DHMBA 250 or 500 μM, 24 h, HK-2, β-actin corrected, control = 1
Method: (§7) FIG. 6 is an explanatory drawing for describing changes in the expression levels of genes related to CL remodeling and degradation of DHMBA under oxidative stress conditions. HK-2 cells were cultured with 100 μM BSO and 250 or 500 μM DHMBA, and then the expression levels of genes related to […] were measured by qPCR. Mean±SD (n=4).
as §2, §3, §4, §5, §6, §1

HADHB = assay: qPCR expression of CL remodeling/degradation-related gene HADHB in HK-2 cells under oxidative stress; format: cell-based, human; conditions: oxidative stress (100 μM BSO) + DHMBA 250 or 500 μM, 24 h, HK-2, β-actin corrected, control = 1
Method: as §7, §2, §3, §4, §5, §6, §1

[2] = background, to date; cited from earlier work
Keap1-Nrf2 pathway = conditions: background, to date; cited from earlier work
[3] = test system: antioxidant gene groups (such as HO-1 and NQO1); conditions: background, to date; cited from earlier work
[4] = background; compared with existing antioxidants; cited from earlier work
mitochondria = conditions: under oxidative stress conditions; results so far; cited from earlier work

## COc1c(O)cc(CO)cc1O [DHMBA, 3,5-dihydroxy-4-methoxy benzyl alcohol]
[1]; 24 h, HK-2, n=4, vs control group
  Change in cardiolipin molecular species: almost all the cardiolipin molecular species increased significantly
[1]; HK-2, n=4
  Change in saturated fatty acid chain FA16:0 of cardiolipin: decreased
  Change in unsaturated fatty acid chain FA18:1 of cardiolipin: increased
  Change in unsaturated fatty acid chain FA18:2 of cardiolipin: increased
CDS2
  CDS2 gene expression level: decreased to the same level as the control group
PNPLA8
  PNPLA8 gene expression level: decreased to the same level as the control group
HADHB
  HADHB gene expression level: increased
[2]
  Radical scavenging ability: confirmed
Keap1-Nrf2 pathway
  Activation of the Keap1-Nrf2 pathway: confirmed
[3]
  Induction of the expression of antioxidant gene groups (such as HO-1 and NQO1): confirmed
[4]
  Cytotoxicity: lower cytotoxicity than existing antioxidants
mitochondria
  Protective effect on mitochondria: protective effect on mitochondria under oxidative stress conditions
